Legend:
[1] = tested on: PGN (TLR2)-induced signaling in human monocytes (THP-1 cell line); experiment: PGN (TLR2)-induced signaling, western blot; type: cell-based; settings: 20 min pretreatment, 20 μg/ml PGN for 15 minutes
Experimental: The monocytic THP-1 cell line was purchased from the American Type Tissue Culture Collection (ATCC Cat. No. TIB-202). Cells (10^6/ml) were pretreated for 20 min with VB-201 or VB-701 at the doses indicated in FIG. 3, or with solvent, followed by activation with 20 μg/ml peptidoglycan (PGN) (InvivoGen, San Diego, Calif.) for 15 minutes, or were untreated (“Unt”). Cells were washed and resuspended in lysis buffer containing 1:100 dithiothreitol (DTT), phosphatase and protease inhibitors (Thermo Scientific). Samples were loaded onto a precast Criterion TGX gel (Bio-Rad, Hemel Hempstead, UK) and transferred onto nitrocellulose membrane. Blots were blocked with 5% milk or BSA in Tris buffered saline and Tween 20 (TBST) for 1 h, followed by incubation with primary and secondary antibodies. Membranes were developed using an ECL kit (Thermo Scientific). The following antibodies were used for immunoblotting:
(§1) Primary antibodies: p-p38 (Cat. No. 4511; 1:1000) and p-IKK (Cat. No. 2697; 1:1000) were from Cell Signaling Technology (Danvers, Mass., USA). p-ERK1/2 (Cat. No. M8159; 1:10000) was purchased from Sigma (Israel). αTubulin served as a loading control.
(§2) Secondary antibodies: HRP donkey anti-rabbit (1:5000) and HRP goat anti-mouse (1:3000) were from Jackson ImmunoResearch (West Grove, Pa., USA). HRP donkey anti-goat (1:5000) was from Santa Cruz Biotechnology.

[2] = tested on: LPS (TLR4)-induced signaling in human monocytes (primary CD14+); experiment: LPS (TLR4)-induced signaling, western blot; type: cell-based; settings: for formation of p-IKK, p-ERK and p-p38 induced by LPS: 20 min pretreatment, 15 min activation with 100 ng/ml LPS
Experimental: Venous blood samples were obtained from healthy male donors in compliance with the Institutional Review Board at the Sheba Medical Center, Ramat Gan, Israel. PBMCs were isolated on Ficoll-Paque PLUS (GE Healthcare, Uppsala, Sweden) using 50 ml Leucosep tubes (Greiner Bio-One, Frickenhausen, Germany). Cells were washed in PBS (Kibbutz Beit Haemek, Israel) and incubated at 4° C. for 15 minutes in a buffer containing PBS and 0.5% bovine serum albumin (BSA) with human CD14 microbeads (Miltenyi Biotec, Bergisch Gladbach, Germany).
(§3) Cells (10^6/ml) were pretreated for 20 min with VB-201 (1-hexadecyl-2-(4′-carboxy)butyl-glycero-3-phosphocholine or 1-hexadecyl-2-(4′-carboxybutyl)-glycerol-3-phosphocholine) or VB-701 at the doses indicated in FIG. 2, or with solvent (Sol), followed by 15 min activation with 100 ng/ml lipopolysaccharide (LPS) or were untreated (Unt). Cells were washed and resuspended in lysis buffer containing 1:100 dithiothreitol (DTT), phosphatase and protease inhibitors (Thermo Scientific). Samples were loaded onto a precast Criterion TGX gel (Bio-Rad, Hemel Hempstead, UK) and transferred onto nitrocellulose membrane. Blots were blocked with 5% milk or BSA in Tris buffered saline and Tween 20 (TBST) for 1 h, followed by incubation with primary and secondary antibodies. Membranes were developed using an ECL kit (Thermo Scientific). The following antibodies were used for immunoblotting:
Primary antibodies: p-p38 (Cat. No. 4511; 1:1000) and p-IKK (Cat. No. 2697; 1:1000) were from Cell Signaling Technology (Danvers, Mass., USA). p-ERK1/2 (Cat. No. M8159; 1:10000) was purchased from Sigma (Israel). αTubulin (Tub) served as a loading control.
as §2
as §3, with “VB-201” for “VB-201 (1-hexadecyl-2-(4′-carboxy)butyl-glycero-3-phosphocholine”, “VB-703” for “1-hexadecyl-2-(4′-carboxybutyl)-glycerol-3-phosphocholine) or VB-701 at the doses indicated in FIG. 2, or with solvent (Sol),”, “LPS.” for “lipopolysaccharide (LPS) or were untreated (Unt).”
as §1, with “Heat shock protein (HSP) 90 (Cat. No. 13119; 1:500) was from Santa Cruz Biotechnology (Santa Cruz, Calif., USA).” for “αTubulin served as a loading control.”

[3] = target: T1, TLR4 complex (Homo sapiens, UniProt O00206+Q9Y6Y9); experiment: LPS binding inhibition assay (biotin-LPS, FACS)
T1 construct: endogenous in cells; probably the human primary monocytes of b454
Experimental: To assess interference with lipopolysaccharide (LPS) binding, VB-201 or VB-703 were incubated for 20 min with cells (10^6/ml) after which 100 ng/ml of biotin-LPS (InvivoGen) was added for an additional 15 minutes, all at 4° C. Cells were washed, resuspended in FACS buffer and analyzed on a FACS-Calibur device.

[4] = tested on: LPS (TLR4) stimulated Mo-Derived DCs; experiment: Cytokine secretion ELISA, LPS (TLR4)-stimulated monocyte-derived dendritic cells; type: cell-based, human; settings: 1 hour pretreatment, 24 hours 100 ng/ml LPS
Experimental: To generate monocyte-derived DC (Mo-DCs), CD14+ monocytes were counted, washed and seeded (10^6/ml) in medium containing RPMI-1640, L-glutamine, β-mercaptoethanol, 10% fetal calf serum (FCS), sodium pyruvate, non-essential amino acids, 0.01 M HEPES, antibiotics (penicillin, streptomycin), 50 ng/ml human granulocyte-macrophage colony-stimulating factor (GMCSF) and 20 ng/ml human IL-4 (both from PeproTech Asia, Israel). Medium was replaced every 2-3 days. Mo-DCs were collected 5-6 days post-culture, counted and seeded (10^6/ml). Cells were pretreated for 1 hour with VB-201 or VB-703, followed by 24 hours activation with 100 ng/ml LPS from Escherichia coli strain 055:B5 (Sigma, Israel) to induce cytokine production. IL-6 concentration (FIG. 14) and IL-12/23p40 (FIG. 15) concentration in supernatant were measured by ELISA (R&D systems, Cat. No. DY1240 and Cat. No. DY206, […]). Cells activated with solvent (0.5% ethanol in PBS) were used as a control.

T1 sequence (O00206 24-839): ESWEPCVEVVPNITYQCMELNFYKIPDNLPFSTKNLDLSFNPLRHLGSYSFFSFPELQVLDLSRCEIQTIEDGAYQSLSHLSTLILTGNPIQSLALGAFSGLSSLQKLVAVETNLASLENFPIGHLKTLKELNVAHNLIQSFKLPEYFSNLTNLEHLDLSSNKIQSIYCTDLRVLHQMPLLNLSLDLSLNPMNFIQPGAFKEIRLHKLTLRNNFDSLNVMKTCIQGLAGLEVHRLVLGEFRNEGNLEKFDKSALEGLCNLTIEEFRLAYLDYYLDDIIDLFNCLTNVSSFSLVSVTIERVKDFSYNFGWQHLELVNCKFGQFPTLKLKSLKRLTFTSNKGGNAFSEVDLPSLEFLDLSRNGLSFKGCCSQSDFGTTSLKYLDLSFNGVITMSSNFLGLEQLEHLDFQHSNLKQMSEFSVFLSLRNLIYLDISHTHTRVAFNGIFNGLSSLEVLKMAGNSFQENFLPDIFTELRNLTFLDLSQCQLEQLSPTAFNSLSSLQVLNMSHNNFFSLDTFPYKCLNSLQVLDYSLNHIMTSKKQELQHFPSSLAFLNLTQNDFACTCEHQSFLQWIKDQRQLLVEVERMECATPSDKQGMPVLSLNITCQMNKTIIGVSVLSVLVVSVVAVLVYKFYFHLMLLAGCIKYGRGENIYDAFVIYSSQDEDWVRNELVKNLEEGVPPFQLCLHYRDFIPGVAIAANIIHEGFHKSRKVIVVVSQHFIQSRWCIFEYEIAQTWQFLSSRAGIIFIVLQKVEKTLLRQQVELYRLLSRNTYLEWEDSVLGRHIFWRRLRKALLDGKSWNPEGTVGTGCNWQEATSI
T1 sequence (Q9Y6Y9 17-160 limits assumed): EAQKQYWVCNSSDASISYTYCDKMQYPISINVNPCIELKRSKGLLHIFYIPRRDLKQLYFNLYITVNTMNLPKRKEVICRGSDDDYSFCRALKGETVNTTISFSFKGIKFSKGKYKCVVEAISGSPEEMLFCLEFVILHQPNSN

IC50 ([3]; biotin-LPS 100 ng/ml, 4° C., human primary monocytes) [µM] | LPS-biotin binding to human monocytes (primary CD14+) ([3]; biotin-LPS 100 ng/ml, FACS) | IC50 of LPS binding, fold lower than that of VB-201 ([3]; compared with VB-201) [fold] | SMILES | formation of p-IKK, p-ERK and p-p38 induced by PGN [1] | formation of p-IKK, p-ERK and p-p38 induced by LPS ([2]; western blot) | formation of p-ERK and p-AKT induced by LPS ([2]; western blot, LPS activation) | IL-6 secretion [4] | IL-12p40 secretion [4] | efficacy in inhibiting TLR4-driven protein phosphorylation, fold higher than VB-201 ([2]; compared with VB-201) [fold]
~12 | – | – | CCCCCCCCCCCCCCCCOCC(COP(=O)([O-])OCC[N+](C)(C)C)OCCCCC(=O)O (stereo not shown) [VB-201, 1-hexadecyl-2-(4′-carboxy)butyl-glycero-3-phosphocholine, reference compound] | inhibit | inhibit | inhibit | inhibit | inhibit | –
– | inhibit | > 10 | CCCCCCCCCCC(CCCCCCCC)COC[C@H](COP(=O)([O-])OCC[n+]1ccccc1)OCCCCC(=O)O (stereo partly drawn) [VB-703, (R)-1-(2′-octyl)dodecyl-2-(4′-carboxy)butyl-sn-glycero-3-phosphoric acid pyridiniumethyl ester] | inhibit | inhibited | – | inhibit | inhibit | ≥ 10

— patent US10464957B2, “Oxidized lipids and methods of use thereof” (Vascular Biogenics Ltd., priority 2014, dated 2019)
